These results are taken from patent publication US20080200454A1, “CARBON-LINKED TETRAHYDRO-PYRAZOLO-PYRIDINE MODULATORS OF CATHEPSIN S” (priority 2007, published 2008).

The term IC50 denotes the concentration at which inhibition is half-maximal.

The target of one assay is Recombinant human cathepsin S (CatS) (Homo sapiens, UniProt P25774). As to the kind of experiment: Recombinant human cathepsin S (CatS) inhibition assay, fluorogenic substrate Z-Valine-Valine-Arginine-AMC.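 Also: Baculovirus-expressed CatS in pH 5.0 sodium acetate buffer with DTT and NaCl, fluorescence read each minute over 20 min, inhibition derived from rate slope.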
Sequence of Recombinant human cathepsin S (CatS) (P25774 115-331): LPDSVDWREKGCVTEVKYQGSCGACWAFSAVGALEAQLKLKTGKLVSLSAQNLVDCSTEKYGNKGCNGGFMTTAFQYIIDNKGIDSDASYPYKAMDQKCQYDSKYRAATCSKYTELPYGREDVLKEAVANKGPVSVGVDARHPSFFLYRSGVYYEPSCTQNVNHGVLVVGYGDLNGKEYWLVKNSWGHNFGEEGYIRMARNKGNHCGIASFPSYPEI
Details: not given
As to `CS(=O)(=O)N1CCc2c(c(-c3ccc(Cl)c(C#Cc4ccc5c(c4)CC(C(=O)N4CCOCC4)NC5)c3)nn2CCCN2CCOCC2)C1` (stereo not shown) [Example 483, 6-({2-Chloro-5-[5-(methylsulfonyl)-1-(3-morpholin-4-ylpropyl)-4,5,6,7-tetrahydro-1H-pyrazolo[4,3-c]pyridin-3-yl]phenyl}ethynyl)-3-(morpholin-4-ylcarbonyl)-1,2,3,4-tetrahydroisoquinoline], the half-maximal inhibitory concentration (IC50) turned out to be 140 nM.
On to `CC(C)CC#Cc1cc(-c2nn(C[C@@H](O)CN3CCC(C4CCN(C(=O)OC(C)(C)C)CC4)CC3)c3c2CN(S(C)(=O)=O)CC3)ccc1Cl` [Example 231, 1,1-Dimethylethyl 1′-[(2S)-3-{3-[4-chloro-3-(4-methylpent-1-yn-1-yl)phenyl]-5-(methylsulfonyl)-4,5,6,7-tetrahydro-1H-pyrazolo[4,3-c]pyridin-1-yl}-2-hydroxypropyl]-4,4′-bipiperidine-1-carboxylate], for which the IC50 is 2690 nM.
On the same count and under the same terms, then `NC(=O)C(=O)N1CCc2c(c(-c3ccc(Cl)c(C#Cc4ccc5c(c4)CN(Cc4ccc(Cl)cc4)CC5)c3)nn2CCCN2CCOCC2)C1` [Example 159, 2-{3-[4-Chloro-3-({2-[(4-chlorophenyl)methyl]-1,2,3,4-tetrahydroisoquinolin-7-yl}ethynyl)phenyl]-1-(3-morpholin-4-ylpropyl)-1,4,6,7-tetrahydro-5H-pyrazolo[4,3-c]pyridin-5-yl}-2-oxoacetamide], with 60 nM; and `CS(=O)(=O)N1CCc2c(c(-c3ccc(C(F)(F)F)c(CCc4ccc(Cl)cc4)c3)nn2CC(O)CN2CCOCC2)C1` (stereo not shown) [Example 147, 1-(3-{3-[2-(4-Chloro-phenyl)-ethyl]-4-trifluoromethyl-phenyl}-5-methanesulfonyl-4,5,6,7-tetrahydro-pyrazolo[4,3-c]pyridin-1-yl)-3-morpholin-4-yl-propan-2-ol], with 410 nM.
Take `COC(=O)C1NCCc2cc(C#Cc3cc(-c4nn(CCCN5CCOCC5)c5c4CN(S(C)(=O)=O)CC5)ccc3Cl)ccc21` (stereo not shown) [Example 208, Methyl 6-({2-chloro-5-[5-(methylsulfonyl)-1-(3-morpholin-4-ylpropyl)-4,5,6,7-tetrahydro-1H-pyrazolo[4,3-c]pyridin-3-yl]phenyl}ethynyl)-1,2,3,4-tetrahydroisoquinoline-1-carboxylate]: the 50% inhibitory concentration (IC50) turned out to be 3130 nM.
Still for that read-out and setting: the value for `CS(=O)(=O)N1CCc2c(c(-c3ccc(Cl)c(C#Cc4ccc5c(c4)CNCC5)c3)nn2CCCN2CCN(C3CC3)CC2)C1` [Example 415, 7-[(2-Chloro-5-{1-[3-(4-cyclopropylpiperazin-1-yl)propyl]-5-(methylsulfonyl)-4,5,6,7-tetrahydro-1H-pyrazolo[4,3-c]pyridin-3-yl}phenyl)ethynyl]-1,2,3,4-tetrahydroisoquinoline] was 90 nM; that for `CS(=O)(=O)N1CCc2c(c(-c3ccc(Cl)c(CCCO)c3)nn2CCCN2CCOCC2)C1` [Example 302, 3-{2-Chloro-5-[5-(methylsulfonyl)-1-(3-morpholin-4-ylpropyl)-4,5,6,7-tetrahydro-1H-pyrazolo[4,3-c]pyridin-3-yl]phenyl}propan-1-ol] was 11500 nM.
On the same count and under the same terms, then `CC(=O)NC1CCN(CCCn2nc(-c3ccc(Cl)c(C#Cc4ccc(CNCc5ccc(Cl)cc5)cc4)c3)c3c2CCNC3)CC1` [Example 369, N-(1-{3-[3-(4-Chloro-3-{[4-({[(4-chlorophenyl)methyl]amino}methyl)phenyl]ethynyl}phenyl)-4,5,6,7-tetrahydro-1H-pyrazolo[4,3-c]pyridin-1-yl]propyl}piperidin-4-yl)acetamide], with 410 nM; and `NC(=O)C(=O)N1CCc2c(c(-c3ccc(Cl)c(C#Cc4ccc(Cl)c(C(=O)N[C@@H](CO)c5ccccc5)c4)c3)nn2CCCN2CCSCC2)C1` [Example 564, 5-[(5-{5-[Amino(oxo)acetyl]-1-(3-thiomorpholin-4-ylpropyl)-4,5,6,7-tetrahydro-1H-pyrazolo[4,3-c]pyridin-3-yl}-2-chlorophenyl)ethynyl]-2-chloro-N-[(1R)-2-hydroxy-1-phenylethyl]benzamide], with 30 nM; and `NC(=O)C(=O)N1CCc2c(c(-c3ccc(Cl)c(C#Cc4ccc(CN[C@@H]5CCCc6ccccc65)cc4)c3)nn2CCCN2CCOCC2)C1` [Example 496, 2-[3-{4-Chloro-3-[(4-{[(1R)-1,2,3,4-tetrahydronaphthalen-1-ylamino]methyl}phenyl)ethynyl]phenyl}-1-(3-morpholin-4-ylpropyl)-1,4,6,7-tetrahydro-5H-pyrazolo[4,3-c]pyridin-5-yl]-2-oxoacetamide], with 70 nM.
For the molecule `COC(=O)[C@H](NCc1ccc(C#Cc2cc(-c3nn(CCCN4CCOCC4)c4c3CN(S(C)(=O)=O)CC4)ccc2Cl)cc1)c1ccccc1` [Example 211, Methyl (2R)-({[4-({2-chloro-5-[5-(methylsulfonyl)-1-(3-morpholin-4-ylpropyl)-4,5,6,7-tetrahydro-1H-pyrazolo[4,3-c]pyridin-3-yl]phenyl}ethynyl)phenyl]methyl}amino)(phenyl)ethanoate], the half-maximal inhibitory concentration (IC50) came to 110 nM.
In the case of `CS(=O)(=O)N1CCc2c(c(-c3ccc(Cl)c(C#Cc4ccc(CNCc5ccc(Cl)cc5)cc4)c3)nn2CCCN2CCN(c3ccccn3)CC2)C1` [Example 179, 1-{4-[(2-Chloro-5-{5-(methylsulfonyl)-1-[3-(4-pyridin-2-ylpiperazin-1-yl)propyl]-4,5,6,7-tetrahydro-1H-pyrazolo[4,3-c]pyridin-3-yl}phenyl)ethynyl]phenyl}-N-[(4-chlorophenyl)methyl]methanamine], the 50% inhibitory concentration (IC50) stood at 20 nM.

Still in this assay, the particulars now being: CatS IC50.
For `CS(=O)(=O)N1CCc2c(c(-c3ccc(Cl)c(C#Cc4ccc(F)cc4F)c3)nn2CCCN2CCOCC2)C1` [Example 33, 3-[4-Chloro-3-(2,4-difluoro-phenylethynyl)-phenyl]-5-methanesulfonyl-1-(3-morpholin-4-yl-propyl)-4,5,6,7-tetrahydro-1H-pyrazolo[4,3-c]pyridine], the half-inhibitory concentration (IC50) worked out at 750 nM.
Consider `CS(=O)(=O)N1CCc2c(c(-c3ccc(Cl)c(C#Cc4ccc(CNCc5ccncc5)cc4)c3)nn2CCCN2CCOCC2)C1` [Example 405, 1-[4-({2-Chloro-5-[5-(methylsulfonyl)-1-(3-morpholin-4-ylpropyl)-4,5,6,7-tetrahydro-1H-pyrazolo[4,3-c]pyridin-3-yl]phenyl}ethynyl)phenyl]-N-(pyridin-4-ylmethyl)methanamine], for which the IC50 is 290 nM.
On the same count and under the same terms, then `CC(C)(C)OC(=O)N1CCN(CCCn2nc(-c3ccc(Cl)c(C#Cc4ccc(CNCc5ccc(Cl)cc5)cc4)c3)c3c2CCN(S(C)(=O)=O)C3)CC1` [Example 367, 1,1-Dimethylethyl 4-{3-[3-(4-chloro-3-{[4-({[(4-chlorophenyl)methyl]amino}methyl)phenyl]ethynyl}phenyl)-5-(methylsulfonyl)-4,5,6,7-tetrahydro-1H-pyrazolo[4,3-c]pyridin-1-yl]propyl}piperazine-1-carboxylate], with 90 nM; and `NC(=O)C(=O)N1CCc2c(c(-c3ccc(Cl)c(C#Cc4ccc(CNCc5ccc(Cl)cc5)cc4)c3)nn2C[C@H](O)CN2CCOCC2)C1` [Example 254, (R)-2-[3-(4-Chloro-3-{4-[(4-chloro-benzylamino)-methyl]-phenylethynyl}-phenyl)-1-(2-hydroxy-3-morpholin-4-yl-propyl)-1,4,6,7-tetrahydro-pyrazolo[4,3-c]pyridin-5-yl]-2-oxo-acetamide], with 240 nM; and `CS(=O)(=O)N1CCc2c(c(-c3ccc(Cl)c(C#Cc4ccc(CNCc5ccc(Cl)cc5)cc4)c3)nn2CCCN2CCCC2)C1` [Example 333, 1-[4-({2-Chloro-5-[5-(methylsulfonyl)-1-(3-pyrrolidin-1-ylpropyl)-4,5,6,7-tetrahydro-1H-pyrazolo[4,3-c]pyridin-3-yl]phenyl}ethynyl)phenyl]-N-[(4-chlorophenyl)methyl]methanamine], with 180 nM.
For the molecule `C[C@H]1COCCN1C[C@@H](O)Cn1nc(-c2ccc(Cl)c(C#Cc3ccc(CNCc4ccc(Cl)cc4)cc3)c2)c2c1CCN(C(=O)C(N)=O)C2` [Example 256, 2-{3-(4-Chloro-3-{4-[(4-chloro-benzylamino)-methyl]-phenylethynyl}-phenyl)-1-[(2R)-2-hydroxy-3-((3S)-3-methyl-morpholin-4-yl)-propyl]-1,4,6,7-tetrahydro-pyrazolo[4,3-c]pyridin-5-yl}-2-oxo-acetamide], the concentration for half-maximal inhibition (IC50) worked out at 50 nM.
On to `Cc1cccc(CNCc2ccc(C#Cc3cc(-c4nn(CCCN5CCSCC5)c5c4CN(C(N)=O)CC5)ccc3Cl)cc2)c1` [Example 508, 3-(4-Chloro-3-{[4-({[(3-methylphenyl)methyl]amino}methyl)phenyl]ethynyl}phenyl)-1-(3-thiomorpholin-4-ylpropyl)-1,4,6,7-tetrahydro-5H-pyrazolo[4,3-c]pyridine-5-carboxamide], for which the IC50 was found to be 110 nM.
For `COC(=O)[C@H]1Cc2ccc(C#Cc3cc(-c4nn(CCCN5CCOCC5)c5c4CN(S(C)(=O)=O)CC5)ccc3Cl)cc2CN1` [Example 200, Methyl (3R)-7-({2-chloro-5-[5-(methylsulfonyl)-1-(3-morpholin-4-ylpropyl)-4,5,6,7-tetrahydro-1H-pyrazolo[4,3-c]pyridin-3-yl]phenyl}ethynyl)-1,2,3,4-tetrahydroisoquinoline-3-carboxylate], the IC50 was 90 nM.
The same measure, in the same setting: then `CC(=O)N1CCC(C2CCN(C[C@H](O)Cn3nc(-c4ccc(Cl)c(CCc5ccc(Cl)cc5)c4)c4c3CCN(S(C)(=O)=O)C4)CC2)CC1` [Example 247, (2S)-1-(1′-Acetyl-4,4′-bipiperidin-1-yl)-3-[3-{4-chloro-3-[2-(4-chlorophenyl)ethyl]phenyl}-5-(methylsulfonyl)-4,5,6,7-tetrahydro-1H-pyrazolo[4,3-c]pyridin-1-yl]propan-2-ol], with 70 nM; and `CN(Cc1ccccc1)Cc1cccc(C#Cc2cc(-c3nn(CCCN4CCOCC4)c4c3CN(S(C)(=O)=O)CC4)ccc2Cl)c1` [Example 528, 1-[3-({2-Chloro-5-[5-(methylsulfonyl)-1-(3-morpholin-4-ylpropyl)-4,5,6,7-tetrahydro-1H-pyrazolo[4,3-c]pyridin-3-yl]phenyl}ethynyl)phenyl]-N-methyl-N-(phenylmethyl)methanamine], with 580 nM.
